US6600076B1, “Cleavable, water-soluble surfactants” (The Regents of the University of California, priority 1999, dated 2003)
Like-named read-outs stand apart in the source and are kept apart here. One block for each compound: values may come before it.

Key:
[1] = Equilibrium surface tension, Wilhelmy plate, borate buffer; format: physicochemical; conditions: 100 mM borate buffer, pH 9.2
Description: Disulfide-containing surfactants with anionic head groups were synthesized. […] Equilibrium surface tensions were measured using a Kruss K10T tensiometer with a platinum Wilhelmy plate. Surfactant solutions were prepared in a 100 mM borate buffer, pH 9.2.

[2] = Surface tension of aqueous solutions, maximum bubble pressure tensiometer, incl. reduction with DTT; format: physicochemical; conditions: for effect on surface tension of water: 10 mM DTT and 1 mM oxidized DTT added to water
Excerpt: (Menger, F. M. et al., J. Am. Chem. Soc. 115:10083-10090 (1993)). […] The surface tensions of the reacting system reported herein correspond, therefore, to a local steady state at the surface of the solution. In the absence of reaction, these surface tensions are equilibrium tensions.

[3] = Stability of solid and of aqueous solutions (surface tension over time); format: physicochemical; conditions: 1 mM solution in 50 mM phosphate buffer (pH 6.9)
[4] = cited from earlier work
[5] = Surface tension after oxidation with NaOCl or bleach (pendant drop); format: physicochemical; conditions: for surface tension: 4 mM
Description: To test the idea that oxidation of 1 by NaOCl would transform 1 into less surface-active products, changes in surface tensions that accompanied additions of aliquots of NaOCl to solutions of 1 were measured. The amount of OCl^− consumed by reaction with 1 was also determined by iodometry. The initial surface tension of the 2 mM solution (using the pendant drop technique) was measured to be 48 mN/m. […] The addition of subsequent aliquots of NaOCl, however, caused the surface tension to increase to ˜71 mN/m. […] In this case, only ˜8% of the OCl^− added remained unreacted.
The oxidation of 1 using NaOCl (6:1 ratio of NaOCl to 1) was performed in 50 mM phosphate buffers at three different pHs (pH 3, 6.9, and 11). Following the addition of NaOCl to aqueous solutions of 1 at pH 3 and pH 6.9, the surface tensions of the solutions were measured to increase from ˜48 mN/m to ˜71 mN/m within ˜5 min (FIG. 17). The surface tension was also determined to increase from ˜48 mN/m to ˜71 mN/m upon addition of NaOCl to an aqueous solution of 1 at pH 11. In this case, however, it took ˜15 min for the surface tension to increase to 71 mN/m. […] Therefore disulfide-based surfactants can form the basis of chemodegradable surfactant system that can be used over a wide pH range.
Household bleach was added (6:1 ratio of NaOCl to 1) to a 2 mM solution of 1 in pH 6.9 buffer. Upon addition of bleach to 1, the surface tension of the solution increased from 48 mN/m to ˜71 mN/m in ˜3 min (FIG. 18A), a result similar to our earlier observations based on the addition of NaOCl to 1. […] A control experiment was performed in which the household bleach was added to the phosphate buffer and found not to change the surface tension.

[6] = Cyclic voltammetry; format: physicochemical; conditions: 5 mM of 1 or 10 mM of 2, 50 mM phosphate buffer pH 6.9, SCE reference
Description: Solutions were prepared in 50 mM phosphate buffer, pH 6.9. Application of potential was controlled using a potentiostat (Pine Instruments, Grove City, Pa.), and the experimental set-up involved using a carbon felt working electrode with cobalt phthalocyanine (catalyst) evaporated onto the surface of the electrode. A platinum counter electrode and SCE reference electrode were also used.

[7] = Interfacial tension between dodecane and aqueous solution on oxidation by NaOCl; format: physicochemical
[8] = Surface tension, pendant drop; conditions: 50 mM phosphate buffer pH 6.9, concentrations around or above 10 mM
[9] = DTT (10 equivalents) added
[10] = 10 mM of 1, 5 wt. % dodecane, NaOCl 6:1

- differences in equilibrium surface tensions between 3 and 4 at a specified concentration [1]: up to 16 mN/m
Compound: 1,16-dicarboxylic dioctyl disulfide [compound 3]

Compound: O[C@H](CS)[C@H](O)CS (racemic) [DTT, dithiothreitol, reference compound]
- effect on surface tension of water [2]: did not result in a change in surface tension

Compound: CCCCCCCCCCCCCCCC[N+](C)(C)C.[Br-] [CTAB, cetyltrimethylammonium bromide]
- increase in surface tension over 24 h [3]: ~0.5 mN/m
- increase in surface tension over 5 days [3]: 1 mN/m
- surface tension [3]: ~41 mN/m
- limiting surface tension (γlim) ([4]; in 0.1 M lithium sulfate): 39 mN/m

Compound: CCCCCCCCCCCC[N+](C)(C)C.[Br-] [DTAB, dodecyltrimethylammonium bromide, reference compound]
- surface tension of the initial solution ([5]; 4 mM solution, before NaOCl): ~52 mN/m
- surface tension ([5]; first equivalent of NaOCl): ~43 mN/m
- surface tension ([5]; second equivalent of NaOCl): ~50 mN/m
- surface tension ([5]; up to six equivalents of NaOCl): 45 mN/m

Compound: CCCCCCCCCCCCOS(=O)(=O)[O-].[Na+] [SDS, sodium dodecyl sulfate]
- surface pressure at an air-aqueous interface ([4]; 1 mM solution): 7.5 mN/m
- surface pressure at the heptadecane-aqueous interface ([4]; 1 mM solution): 15.2 mN/m

- oxidation peak [6]: 0.55 V
- average area occupied at the surface ([2]; 2 mM solution of 2, Gibbs adsorption equation): > 500 A^2/molecule
- threshold concentration of surfactant causing a measurable reduction in surface tension ([2]; 50 mM phosphate buffer, pH 6.9, 25° C.): ~1 mM
Compound: C[N+](C)(C)CCCCCCCCS.[Br-] [compound 2, (8-mercaptooctyl)trimethylammonium bromide]

- surface pressure π at the interface of dodecane and water ([7]; 10 mM of 1 oxidized): 22.5 mN/m
- surface pressure π at the surface of water ([7]; concentration of 10 mN (printed)): 2 mN/m
- surface activity of the oxidation product ([5]; up to a concentration of 10 mM, 6:1 NaOCl to 1): surface-inactive
- limiting surface tension [8]: ~47 mN/m
Compound: O=C(O)CCCCCCCS [compound 4, 8-mercaptooctanoic acid]

Compound: C[N+](C)(C)CCCCCCCCCCCC[N+](C)(C)C.[Br-].[Br-] [dodecane-1,12-bis(trimethylammoniumdibromide)]
- limiting surface tension ([4]; dissolved into water): 38 mN/m

Compound: OC1CSSCC1O (centres unmarked) [oxidized DTT, reference compound]
- effect on surface tension of water [2]: did not result in a change in surface tension

Compound: bis(8-trimethylammonium bromide)dioctyl disulfide [compound 1]
- time for the interfacial tension to increase ([7]; 10 mM, 6 equivalents of NaOCl): ≤ 3 min
- duration of the rapid oxidation [5]: 2 to 3 min
- time for the surface tension to increase ([5]; NaOCl 6:1, pH 3 and pH 6.9): ≤ 5 min
- time for the surface tension to increase ([5]; NaOCl 6:1, pH 11): ~15 min
- time for the surface tension to increase ([5]; household bleach, 6:1, pH 6.9): ~3 min
- completion of phase separation of the emulsion [9]: ~120 min
- completion of phase separation of the emulsion [10]: 45 min
- evidence of phase separation of the emulsion [10]: ≤ 10 min
